# Structures can show the parent of a compound that is named as a salt.
# Tests used:
# miRNAs targeting CCR5 = experiment: miRNA expression profiles of hearts after acute doxorubicin regimen (Illumina miRNA arrays); assay type: in vivo, rats; settings: acute doxorubicin 1x 20 mg/kg IP, n=6, vs saline
# Description: In silico analysis using the miRdb database (www.mirdb.org) identified a number of miRNAs that could potentially regulate translation of CCR5 in rats (see X-axis for identification of individual miRNAs). […] Data rare represented as fold change to saline treated rats and shown as mean+/−SEM, * p<0.01.
# [1] = tested on: CCR5 ligands CCL3, CCL5, CCL4; settings: doxorubicin treated patients (n=7) vs donor controls (n=9); cited from earlier work
# [2] = Survival of doxorubicin treated mice over 90 days; assay type: in vivo
# Description: Survival was documented over the first 90 days after the beginning of treatment.
# [3] = tested on: CCR5, CCL3/MIP-la, CCL5/RANTES; settings: chronic or acute DOX regimen vs saline; cited from earlier work
# [4] = Chronic DOX model, cardiac function by echocardiography; assay type: in vivo; settings: female mice, DOX 8×3 mg/kg over 2 weeks; 6 and 8 weeks after first injections; vs saline
# Method: Female mice (n=10) were treated with a chronic regimen of DOX (8×3 mg/kg over 2 weeks) and cardiac function assessed by echocardiography at 6 and 8 weeks after the first injections. Echocardiographic imaging was employed using the Vevo 2100 preclinical high-frequency ultrasound system (Visualsonics, Toronto, Canada). M-mode analysis of the resulting images provided indices of cardiac systolic and diastolic function. For FIG. 5a, the ejection fraction is the percentage of the left ventricular volume expelled with each cardiac contraction. For FIG. 5b, the ESD is the […]. For FIG. 5c, the ESV is the end systolic volume or the volume of the heart at the end of contraction (systole). For FIG. 5d, the PWs is the posterior wall thickness at end of systole or the thickness of the myocardium at maximal ventricular contraction. All data are compared to the saline treated group and represent mean+/−SEM, p<0.01.
# [5] = tested on: BCa cells (SUM-159, FC-IBC-02, MDA-MB-231); experiment: CCR5 expression in BCa cells grown in doxorubicin, flow cytometry; assay type: cell-based; settings: 10-40 nmol/L doxorubicin for up to 80 days vs untreated
# Method: BCa cells were grown in vitro under standard conditions for control (“solid bar”) or DOX treatment (“non-solid bar”) for up to 80 days. SUM-159 cells were grown in 10 nmol/L doxorubicin for 1 month, then 20 nmol/L doxorubicin for 1 month, and then 40 nmol/L doxorubicin for 3 weeks, prior to analysis. FC-IBC-02 cells were grown in 40 nmol/L doxorubicin for 1 month prior to analysis. MDA-MB-231 cells were grown in 20 nmol/L doxorubicin for 1 month then 40 nmol/L doxorubicin for 3 weeks prior to analysis. At the conclusion of the 80 days, surviving cells were harvested and pelleted by centrifugation. Cells were suspended in PBS containing normal mouse IgG and rat anti-mouse Fcg III/II receptor antibody to block nonspecific binding. Cells were exposed allophycocyanin (APC)-labeled CCR5 antibody for 1 hour at 4° C. After washing, analysis of CCR5 expression on cell was conducted on FACSCalibur flow cytometer (BD Biosciences). The data was analyzed with FlowJo software (Tree Star, Inc.). […] Data are % cells expressing CCR5 (mean of n=3 determinations).
# cardiac progenitor iPSCs [6] = experiment: DOX killing and CCR5 expression in cardiac progenitor iPSCs, propidium iodide / flow cytometry; assay type: cell-based
# Method: Some cells were suspended in PBS containing normal mouse IgG and rat anti-mouse Fcg III/II receptor antibody. Cells were exposed allophycocyanin (APC)-labeled CCR5 antibody for 1 hour at 4° C. After washing, analysis of CCR5 expression on cell was conducted on FACSCalibur flow cytometer (BD Biosciences). The data was analyzed with FlowJo software (Tree Star, Inc.). […] As such, CCR5+ cardiac progenitor cells are more prone to DOX induced cell death from than their CCR5− counterparts.
# [7] = tested on: Isolated canine cardiac myocytes; experiment: DOX-induced apoptosis of isolated canine cardiac myocytes; assay type: cell-based; settings: 24 hours
# CCR5 = CCR5 immunostaining of myocardium after chronic regimen of DOX; assay type: in vivo, mice; settings: DOX 8×3 mg/kg IP, excised after 8 weeks; vs saline
# Method: Mice were treated with a chronic regimen of DOX (8×3 mg/kg, IP, n=12) or saline (n=10), excised after 8 weeks and fixed in paraformaldehyde overnight before being embedded in paraffin blocks. Blocks were sectioned (5 μm) and, after deparaffinization and rehydration, antigen retrieval was performed in Tris buffer (pH 9). After blocking, sections were incubated with an antibody against CCR5. Anti-CCR5 antibody binding was visualized using an HRP-conjugated second antibody and Nova red substitute. Haematoxylin was used for nuclear visualization.
# CCR5, CCL3, CCL5 = tested on: CCR5, CCL3, CCL5; design: species or system human
# Method: FIGS. 4a through 4f show myocardial biopsies from patients with either doxorubicin-induced cardiomyopathy or donor control heart. […] Samples were obtained from the Sydney heart bank. Biopsies were obtained at the time of transplant for the doxorubicin affected hearts. […] Heart biopsies were fixed in paraformaldehyde overnight prior to being embedded in paraffin blocks. Blocks were sectioned at […]. After deparaffinization and rehydration, antigen retrieval was performed in Tris buffer (pH 9) on the resulting sections. After blocking, sections were incubated with an antibody against CCR5, CCL3, or CCL5. Anti-CCR5 antibody binding was visualized using an HRP-conjugated second antibody and NOVA red substrate. Haematoxylin was used for nuclear visualization.
# iPSC-CM = experiment: CellTiter-Glo luminescent cell viability assay, iPSC-derived cardiomyocytes; assay type: cell-based; settings: 5 μM Dox plus 50 μM compound vs Dox alone
# [8] = tested on: breast cancer cell lines (BCa); experiment: CellTiter-Glo luminescent cell viability assay, breast cancer cell lines; assay type: cell-based; settings: 5 μM Dox plus 50 μM compound vs Dox alone
# [9] = tested on: breast cancer cell line Py8119; experiment: Py8119 cell proliferation by cell number using methylene blue; assay type: cell-based; settings: Ranolazine 0.156 um to 20 um, alone or with 5 uM Dox
# Method: The breast cancer cell line Py8119 was treated with either increasing doses of Ranolazine (0.156 um to 20 um) or with the addition of doxorubicin. (5 uM Dox). Cell proliferation was established by cell number using methylene blue.
# MDA-MB-231 BCa cells = settings: Veliparib plus maraviroc vs vehicle, 72 hours, n=3
# Method: After 24 hours, cells were harvested and pelleted by centrifugation. For cell death, cells were incubated with RNase A and propidium iodide to highlight DNA content and nuclear morphology. Cell death was identified by counting cells with nuclei that were smaller and with less DNA content compared to normal diploid cells. […] (mean+/−SD, n=3). […] MDA-MB-231 BCa cells were plated onto 96-well plates, allowed to adhere overnight, then treated with drug for 72 hours. Cells were incubated with DNA damaging agent (Veliparib) and either vehicle or maraviroc. A measurement of cell number was made at both the time of treatment (time 0) and after drug treatment (time 72) using CTG reagent (Promega, Madison, Wis.) to allow for calculation of percent growth inhibition and the dose required to inhibit growth rate by 50% (GR50). […] Data represents mean+/−SD (n=3).
# SUM-159 cells = experiment: BCa lung metastasis after intracardiac injection of SUM-159 Luc2-eGFP cells, bioluminescence imaging; assay type: in vivo, NOD/SCID mice; settings: Maraviroc 8 mg/kg every 12 hr oral gavage vs vehicle; n=6
# Method: SUM-159 cells expressing Luc2-eGFP were introduced by intracardiac injection into 8-week old female NOD/SCID mice at 2×10^5 cells/mouse). […] Bioluminescence imaging was performed after intraperitoneal (i.p.) injection with 200 μL of D-luciferin at 30 mg/ml.
# [10] = Doxorubicin induced cardiac dysfunction, echocardiography 8 weeks after final dose; assay type: in vivo, mice; settings: doxorubicin 8×3 mg/kg over 2 weeks with maraviroc 16 mg/kg twice daily gavage vs vehicle; n=15 per group
# Description: A representative example of the echocardiogram is shown. […] Indices include Left Ventricular End Systolic Dimension (LVESD) and Volume (LVESV), which are the diameter and volume of the left ventricle at the end of systole respectively, ejection fraction (EF) which is the percentage of the left ventricular volume expelled with each cardiac contraction (%), and fractional shortening (FS) which is the proportion of diastolic dimension lost in systole (%).
# cardiac progenitor iPSCs [11] = experiment: Cell death of cardiac precursor iPSCs with saline or DOX and maraviroc, propidium iodide; assay type: cell-based; settings: 1 μM DOX plus maraviroc (0-100 m), 24 hours, n=3
# Description: (mean+/−SD, n=3). […] Data represents mean+/−SD (n=3).
# [12] = anthracycline cardiotoxicity myocardium (n=2) vs normal donor heart (n=2)
compound,measurement,setting,value
COc1cccc2c1C(=O)c1c(O)c3c(c(O)c1C2=O)C[C@@](O)(C(=O)CO)C[C@@H]3O[C@H]1C[C@H](N)[C@H](O)[C@H](C)O1 [doxorubicin],miRNAs targeting CCR5 with decreased expression in the myocardium,miRNAs targeting CCR5,8/11
same,CCL3 mRNA expression in the heart,[1],increased mRNA expression
same,CCL5 mRNA expression in the heart,[1],increased mRNA expression
same,survival over first 90 days,[2]; doxorubicin 8x 3 mg/kg over 2 weeks with vehicle control,7/15
same,CCL3 mRNA expression in the heart,[3],increased mRNA expression
same,CCL5 mRNA expression in the heart,[3],increased mRNA expression
same,"cardiac function (ejection fraction, ESD, ESV, PWs)",[4],induction of stable mild heart failure
same,CCR5 expression (% cells expressing CCR5),[5],significantly increased
same,cell death,"cardiac progenitor iPSCs [6]; DOX 0-10 m, 24 hours, n=5",promotes cell death in a dose dependent manner
same,CCR5 expression,"cardiac progenitor iPSCs [6]; DOX 24 hours, n=3",increases CCR5 expression
same,proportion of DOX-induced apoptotic cell death,"[7]; DOX 10 μM, no pretreatment",17%
same,CCR5 expression in the myocardium,CCR5,increased
same,Average ejection fraction (EF),"CCR5, CCL3, CCL5",25-35%
same,CCL3 expression in myocardium,"CCR5, CCL3, CCL5; [12]",increased
same,CCL5 expression in myocardium,"CCR5, CCL3, CCL5; [12]",increased
same,CCR5 expression in myocardium,"CCR5, CCL3, CCL5; [12]",increased
COc1ccccc1OCC(O)CN1CCN(CC(=O)Nc2c(C)cccc2C)CC1 (centres unmarked) [Ranolazine dihydrochloride],survival of iPSC-CM,iPSC-CM,improved survival
same,survival of BCa cells,[8],reduced survival
same,DOX-induced cardiac toxicity (levels of apoptosis),"[7]; pretreated with ranolazine dihydrochloride 50 μM, then DOX 2 μM, n=3",reduces DOX-induced cardiac toxicity
COc1ccccc1OCC(O)CN1CCN(CC(=O)Nc2c(C)cccc2C)CC1 (centres unmarked) [Ranolazine],breast cancer cell killing (cell proliferation),[9],enhance breast cancer cell killing in a dose dependent manner
maraviroc,survival of iPSC-CM,iPSC-CM,improved survival
same,survival of BCa cells,[8],reduced survival
same,BCa cell killing in combination with veliparib,MDA-MB-231 BCa cells,synergistically promotes BCa cell killing
same,survival over first 90 days,[2]; doxorubicin 8x 3 mg/kg over 2 weeks with maraviroc 16 mg/kg twice daily gavage,10/15
same,enhanced survival over the vehicle in DOX treated mice,[2]; doxorubicin with maraviroc vs doxorubicin with vehicle,2.77 fold
same,BCa lung metastasis,SUM-159 cells,reduced
same,"doxorubicin induced cardiac dysfunction (LVESD, LVESV, EF, FS)",[10],prevents doxorubicin induced cardiac dysfunction
same,proportion of DOX-induced apoptotic cell death,"[7]; pretreated with maraviroc 100 μM, then DOX 10 μM",3%
same,DOX induced cell death,cardiac progenitor iPSCs [11],"significantly, and dose dependently, rescues DOX induced cell death"
